How the values were obtained:
Format in all cases: functional, cell-based
A549 [1] = experiment: Inhibition of non-small-cell lung adenocarcinoma (A549) after 48-h treatment; details: Homo sapiens, A549, 48 h
A-427 [2] = experiment: Inhibition of large cell lung carcinoma (A427) after 48-h treatment; details: Homo sapiens, A-427, 48 h
MCF7 [3] = experiment: Inhibition of proliferative breast adenocarcinoma cell line MCF-7 after 48-h treatment; details: Homo sapiens, MCF7, 48 h
MCF7 [4] = experiment: Inhibition of proliferation of breast adenocarcinoma cell line MCF-7; details: Homo sapiens
A-427 [5] = experiment: Inhibition of large cell lung carcinoma (A427); details: Homo sapiens
A549 [6] = experiment: Inhibition of non-small-cell lung adenocarcinoma (A549); details: Homo sapiens

In the case of `CCCCCCCCCCCCCCCCOC[C@H](COC)COP(=O)([O-])OCC[N+](C)(C)C`, the IC50 (A549 [1]) is reported as 7.5 µM, the IC50 (A-427 [2]) is reported as 20 µM and the IC50 (MCF7 [3]) is reported as 2 µM.
In the case of `CCCCCCCCCCCCCCCCOC[C@@H](COC)COP(=O)([O-])OCC[N+](C)(C)C`, the IC50 (MCF7 [4]) is reported as 2 µM, the IC50 (A-427 [5]) is reported as over 20 µM and the IC50 (A549 [6]) is reported as 10 µM.
Compound `CCCCCCCCCCCCCCCCSCC(COC)COP(=O)([O-])OCC[N+](C)(C)C` (racemic) [ILMOFOSINE] has an IC50 (MCF7 [4]) of 2 µM, an IC50 (A-427 [5]) of 20 µM and an IC50 (A549 [6]) of 10 µM.
